From PubChem BioAssay (NCI)
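Cultured in 96-well plates, cells were exposed to test compound for 48 hours across five concentrations. GI50 marks 50% less growth. TGI is the concentration that stops growth completely.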

Key:
Test in all cases: DTP human tumour cell line panel, 48 h
U251 CNS = system: U251 CNS
SNB-75 CNS = system: SNB-75 CNS
786-0 renal = system: 786-0 renal
DU-145 prostate = system: DU-145 prostate
HOP-92 NSCLC = system: HOP-92 NSCLC
T-47D breast = system: T-47D breast
M14 melanoma = system: M14 melanoma
TK-10 renal = system: TK-10 renal
HCT-15 colon = system: HCT-15 colon
SF-295 CNS = system: SF-295 CNS

Structure (SMILES)	GI50 (U251 CNS)	TGI (U251 CNS)	GI50 (SNB-75 CNS)	TGI (SNB-75 CNS)	GI50 (786-0 renal)	TGI (786-0 renal)	GI50 (DU-145 prostate)	TGI (DU-145 prostate)	GI50 (HOP-92 NSCLC)	TGI (HOP-92 NSCLC)	GI50 (T-47D breast)	TGI (T-47D breast)	GI50 (M14 melanoma)	TGI (M14 melanoma)	GI50 (TK-10 renal)	TGI (TK-10 renal)	GI50 (HCT-15 colon)	TGI (HCT-15 colon)	GI50 (SF-295 CNS)	TGI (SF-295 CNS)
COC1/C=C/OC2(C)Oc3c(C)c(O)c4c(O)c(c(C=NOC(c5ccccc5)c5ccccc5)c(O)c4c3C2=O)NC(=O)/C(C)=C/C=C/C(C)C(O)C(C)C(O)C(C)C(OC(C)=O)C1C (stereo not given)	0.975 µM	1.96 µM	1.34 µM	5.73 µM	1.29 µM	3.06 µM	2.05 µM	6.87 µM	0.972 µM	2.74 µM	1.87 µM	6.71 µM	1.18 µM	2.82 µM	1.14 µM	3.59 µM	1.17 µM	2.96 µM	1.21 µM	3.57 µM
COc1cc(-c2ccc(=O)oc2C#Cc2ccccc2)cc(OC)c1OC	8.09 µM	34.4 µM	12.1 µM	32.6 µM	32.6 µM	> 100 µM	28.3 µM	> 100 µM	16.1 µM	39.2 µM	45.2 µM	> 100 µM	48.9 µM	> 100 µM	29 µM	> 100 µM	13.8 µM	> 100 µM	11.2 µM	35.5 µM
O=C1c2ccccc2-c2ccccc2C1(Cl)Cl	0.314 µM	1.07 µM	1.62 µM	3 µM	2.11 µM	4.16 µM	1.47 µM	2.78 µM	1.76 µM	4.07 µM	1.6 µM	4.12 µM	1.26 µM	2.65 µM	1.25 µM	2.68 µM	1.81 µM	4.25 µM	1.27 µM	3 µM
C=C(C)C1CCC2(C(=O)O)CCC3(C)C(CCC4C5(C)CCC(O)C(C)(C)C5CCC43C)C12 (stereo not given)	–	22 µM	–	33 µM	–	25.2 µM	–	27.1 µM	–	12.4 µM	–	35.5 µM	–	27.7 µM	–	28.9 µM	–	23.5 µM	–	23.6 µM
O=C(Nc1ccc(Cl)cc1)c1cc2ccccc2cc1OP(=O)(O)O	3.74 µM	21.3 µM	2.03 µM	25.2 µM	3.59 µM	13.4 µM	3.94 µM	17.8 µM	2.46 µM	8.45 µM	3.98 µM	35.2 µM	3.74 µM	56.6 µM	3.65 µM	14.1 µM	3.55 µM	> 100 µM	8.6 µM	31.9 µM
O=C(Nc1nc(-c2ccccc2Cl)cs1)c1cc(-c2ccc(Cl)cc2)nc2ccc(Cl)cc12	3.42 µM	28.6 µM	3.38 µM	> 100 µM	2.84 µM	20 µM	4.24 µM	> 100 µM	1.42 µM	8.43 µM	22.5 µM	> 100 µM	0.918 µM	4.76 µM	15 µM	> 100 µM	1.93 µM	40 µM	3.16 µM	23.3 µM
